Drawing on patent US20160237059A1, “HETEROCYCLIC SUBSTITUTED TRIFLUOROMETHYL PYRIMIDINONES AND THEIR USE” (BAYER PHARMA AKTIENGESELLSCHAFT, priority 2013, published 2016), this text covers IC50 for 12 compounds.

Structures can show the parent of a compound that is named as a salt.

In assay [1] the target is T1, human CCR2 (Homo sapiens, UniProt P41597).
T1 construct: host or cells: Chem-1 cell line
T1 sequence (P41597 1-360 isoform P41597-2): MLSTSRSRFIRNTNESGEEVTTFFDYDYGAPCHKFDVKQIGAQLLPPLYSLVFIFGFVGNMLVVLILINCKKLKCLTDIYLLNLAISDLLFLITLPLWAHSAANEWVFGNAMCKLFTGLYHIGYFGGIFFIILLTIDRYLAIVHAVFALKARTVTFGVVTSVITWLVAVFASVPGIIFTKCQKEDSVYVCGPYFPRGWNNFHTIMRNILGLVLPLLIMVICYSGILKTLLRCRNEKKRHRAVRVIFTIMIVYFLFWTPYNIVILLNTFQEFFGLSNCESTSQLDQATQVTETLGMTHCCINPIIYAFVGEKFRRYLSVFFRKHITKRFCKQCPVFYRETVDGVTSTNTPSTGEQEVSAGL
The assay can be described thus: Functional Ca2+ release test (B-1). The format is cell-based. The conditions noted are these: Chem-1 cell line transfected with human CCR2; 50% inhibition of the MCP-1 effect, MCP-1 at EC50 (about 5 nM); in some cases means of several determinations. The procedure, abridged: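 Inhibition of MCP-1-evoked Ca2+ release was measured over 120 s by fluorescence imaging in Fluo-4-loaded, human CCR2-transfected Chem-1 cells. Compounds, tested in 10-point 1:3.16 series, were added 10 min before agonist at its EC50 (typically about 5 nM). IC50 values were obtained by 4-parameter logistic fitting.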

In assay [2] the target is T2, murine CCR2 (Mus musculus, UniProt P51683).
T2 construct: host or cells: U2OS β-arrestin cell line
Put plainly: Functional β-arrestin recruiting test with human MCP-1 (B-2a). In kind it is cell-based. Particulars: U2OS β-arrestin cell line transfected with murine CCR2; agonist human MCP-1 at EC50 (about 3 nM); in some cases means of several determinations. The protocol:
The antagonistic action of test substances on CCR2 was determined in a β-arrestin test. The PathHunter β-arrestin GPCR test system (DiscoveRx Corporation, Ltd.) is a cell-based functional method for detecting binding of β-arrestin to an activated receptor. The molecular basis is a […] complementation measured by the enzymatic conversion of a chemiluminescent substrate. The test cell used was a U2OS β-arrestin cell line transfected with murine CCR2 (93-0543C3, DiscoveRx Corporation, Ltd.).
The test substances were dissolved in dimethyl sulphoxide (DMSO) at a concentration of 10 mM and serially diluted with DMSO in steps of 1:3.16 for a 10-point dose/activity analysis. According to the desired test concentrations, the substances were pre-diluted in Tyrode with 2 mM CaCl2 and 0.05% BSA.
The cells, cultivated in MEM Eagle (supplemented with 10% FCS, 50 U/ml of penicillin, 50 μg/ml of streptomycin, 250 μg/ml of hygromycin and 500 μg/ml of geniticin), were sown at 2000 cells/25 μl in 384 well, μCLEAR/black cell culture plates from Greiner (#781092) and incubated at 37° C. for 24 h. The sowing medium consisted of Opti-MEM (supplemented with 1% FCS, 50 U/ml of penicillin and 50 μg/ml of streptomycin). The cells were pre-incubated for 10 min with 10 μl of the test substances diluted in buffer, and 10 μl of agonist solution [human MCP-1 (PeproTech, #300-04) in Tyrode with 0.05% BSA) were then added. The human MCP-1 was employed at the concentration which corresponds to the EC50 which had been determined in a preliminary test (usually about 3 nM). After 90 min of incubation at 37° C., the solution was removed, and recruitment of β-arrestin to CCR2 was detected with the aid of the PathHunter detection reagent (93-001, DiscoveRx Corporation, Ltd.) according to the instructions of the manufacturer. Luminescence was measured after an incubation time of 60 min using a proprietary luminescence imaging measuring instrument. The molar concentration of the test substance which caused 50% inhibition of the MCP-1 effect (IC50) was determined using a 4-parameter logistic function (Hill function).

T2 sequence (P51683 whole entry): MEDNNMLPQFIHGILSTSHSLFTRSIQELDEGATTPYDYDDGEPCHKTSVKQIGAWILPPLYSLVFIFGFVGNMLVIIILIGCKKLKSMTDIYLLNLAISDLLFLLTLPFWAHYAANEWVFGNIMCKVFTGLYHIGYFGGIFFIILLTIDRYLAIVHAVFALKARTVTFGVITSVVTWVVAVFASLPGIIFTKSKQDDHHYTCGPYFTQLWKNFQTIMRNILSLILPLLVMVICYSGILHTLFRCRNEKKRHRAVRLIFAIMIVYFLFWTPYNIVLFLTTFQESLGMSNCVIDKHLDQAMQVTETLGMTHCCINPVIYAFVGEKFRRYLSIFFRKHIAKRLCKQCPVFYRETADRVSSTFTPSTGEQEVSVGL

As to `Nc1[nH]ncc1-c1nc(C(F)(F)F)c(Cc2ccc(Cl)c(Cl)c2)c(=O)[nH]1` [Example 60, 2-(5-amino-1H-pyrazol-4-yl)-5-(3,4-dichlorobenzyl)-6-(trifluoromethyl)pyrimidin-4(3H)-one], the figures for the IC50 in assay [1] and in assay [2] were 91 nM and 180 nM, respectively.

Consider `Cn1ncc(-c2nc(C(F)(F)F)c(Cc3ccc(Cl)c(Cl)c3)c(=O)[nH]2)c1N` [Example 61, 2-(5-amino-1-methyl-1H-pyrazol-4-yl)-5-(3,4-dichlorobenzyl)-6-(trifluoromethyl)pyrimidin-4(3H)-one], for which the IC50 (usually the point on the concentration scale where inhibition reaches its midpoint) in assay [1] was determined as 36 nM; in assay [2] it was 220 nM.

As for `Nc1[nH]ncc1-c1nc(C(F)(F)F)c(Oc2ccc(Cl)c(Cl)c2)c(=O)[nH]1` [Example 62, 2-(5-amino-1H-pyrazol-4-yl)-5-(3,4-dichlorophenoxy)-6-(trifluoromethyl)pyrimidin-4(3H)-one trifluoroacetate], the figures for the IC50 in assay [1] and in assay [2] were 110 nM and 140 nM, respectively.

`O=c1[nH]c(-c2cn[nH]c2)nc(C(F)(F)F)c1Cc1ccc(Cl)c(Cl)c1` [Example 63, 5-(3,4-dichlorobenzyl)-2-(1H-pyrazol-4-yl)-6-(trifluoromethyl)pyrimidin-4(3H)-one]: the IC50 in assay [1] is 5.5 nM; in assay [2], 100 nM.

Regarding `Nc1nc[nH]c1-c1nc(C(F)(F)F)c(Oc2ccc(Cl)c(Cl)c2)c(=O)[nH]1` [Example 64, 2-(4-amino-1H-imidazol-5-yl)-5-(3,4-dichlorophenoxy)-6-(trifluoromethyl)pyrimidin-4(3H)-one], the figures for the IC50 in assay [1] and in assay [2] were 320 nM and 6500 nM, respectively.

For the compound `O=c1[nH]c(-c2cn[nH]c2)nc(C(F)(F)F)c1Oc1ccc(Cl)c(Cl)c1` [Example 66, 5-(3,4-dichlorophenoxy)-2-(1H-pyrazol-4-yl)-6-(trifluoromethyl)pyrimidin-4(3H)-one], the IC50 was determined as 4.4 nM in assay [1] and 110 nM in assay [2].

As to `Cn1ncc(-c2nc(C(F)(F)F)c(Oc3ccc(Cl)c(C(F)(F)F)c3)c(=O)[nH]2)c1N` [Example 67, 2-(5-amino-1-methyl-1H-pyrazol-4-yl)-5-[4-chloro-3-(trifluoromethyl)phenoxy]-6-(trifluoromethyl)pyrimidin-4(3H)-one], the IC50 in assay [1] was determined as 8.3 nM; in assay [2], 150 nM.

For `Cn1ncc(-c2nc(C(F)(F)F)c(Oc3ccc(Cl)c(Cl)c3)c(=O)[nH]2)c1N` [Example 68, 2-(5-amino-1-methyl-1H-pyrazol-4-yl)-5-(3,4-dichlorophenoxy)-6-(trifluoromethyl)pyrimidin-4(3H)-on], the IC50 in assay [1] is 27 nM; in assay [2], 310 nM.

Take `Nc1nc[nH]c1-c1nc(C(F)(F)F)c(Oc2ccc(Cl)c(C(F)(F)F)c2)c(=O)[nH]1` [Example 69, 2-(4-amino-1H-imidazol-5-yl)-5-[4-chloro-3-(trifluoromethyl)phenoxy]-6-(trifluoromethyl)pyrimidin-4(3H)-one]: the IC50 in assay [1] amounted to 130 nM; in assay [2], 1100 nM.

With `O=c1[nH]c(-c2cc[nH]n2)nc(C(F)(F)F)c1Cc1ccc(Cl)c(C(F)(F)F)c1` [Example 72, 5-[4-chloro-3-(trifluoromethyl)benzyl]-2-(1H-pyrazol-3-yl)-6-(trifluoromethyl)pyrimidin-4(3H)-one], the IC50 amounted to 0.7 nM in assay [1] and 19 nM in assay [2].

Regarding `CC(C)c1nc(-c2nc(C(F)(F)F)c(Oc3ccc(Cl)c(Cl)c3)c(=O)[nH]2)no1` [Example 80, 5-(3,4-Dichlorophenoxy)-2-[5-(propan-2-yl)-1,2,4-oxadiazol-3-yl]-6-(trifluoromethyl)pyrimidin-4(3H)-one x N,N-diisopropylethylamine], the IC50 worked out at 32 nM in assay [1] and 160 nM in assay [2].

Take `COCc1nc(-c2nc(C(F)(F)F)c(Oc3ccc(Cl)c(Cl)c3)c(=O)[nH]2)no1` [Example 81, 5-(3,4-dichlorophenoxy)-2-[5-(methoxymethyl)-1,2,4-oxadiazol-3-yl]-6-(trifluoromethyl)pyrimidin-4(3H)-one x N,N-diisopropylethylamine]: the half-inhibitory concentration (IC50) in assay [1] stood at 19 nM; in assay [2], 110 nM.
